Article PMC6339655 (International Journal of Nanomedicine, 2019)
Values after ≈ are worked out from the molar mass of the structure shown.

Test system: C. albicans (ATCC-90028)
Assay: MIC by colony-forming assay
Format: cell-based
Conditions: Candida albicans, ATCC90028, 48 h

MIC: 64 µg/mL (≈ 96.1 µM)
SMILES: C[C@@H]1C/C=C/C=C/C=C/C=C/[C@H](O[C@@H]2O[C@H](C)[C@@H](O)[C@H](N)[C@@H]2O)C[C@@H]2O[C@](O)(C[C@@H](O)C[C@H]3O[C@@H]3/C=C/C(=O)O1)C[C@H](O)[C@H]2C(=O)O [natamycin]
